# Reference: patent US20150133426A1, “SUBSTITUTED PYRROLOPYRIMIDINES” (BAYER PHARMA AKTIENGESELLSCHAFT, priority 2012, published 2015)
# Counter-ions that a name gives are not always drawn.
# Molecular target: T1, human full-length MKNK1 (Homo sapiens, UniProt Q9BUB5, T385D)
# T1 construct: purchased Carna Biosciences 02-145; host or cells: insect cells, baculovirus expression system
# Assay: MKNK1 kinase high ATP assay (TR-FRET)
# Type: biochemical
# Details: high ATP (2 mM), 15 min preincubation with enzyme, GST-MKNK1 (T344D)
# In short: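 GST-tagged full-length human MKNK1 (aa 1-424, T344D), baculovirus-expressed, preincubated 15 min with compound, then reacted 30 min at 22 °C with 2 mM ATP and 0.06 µM biotinylated peptide (final).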
# T1 sequence (Q9BUB5 1-424 isoform Q9BUB5-2 T344D): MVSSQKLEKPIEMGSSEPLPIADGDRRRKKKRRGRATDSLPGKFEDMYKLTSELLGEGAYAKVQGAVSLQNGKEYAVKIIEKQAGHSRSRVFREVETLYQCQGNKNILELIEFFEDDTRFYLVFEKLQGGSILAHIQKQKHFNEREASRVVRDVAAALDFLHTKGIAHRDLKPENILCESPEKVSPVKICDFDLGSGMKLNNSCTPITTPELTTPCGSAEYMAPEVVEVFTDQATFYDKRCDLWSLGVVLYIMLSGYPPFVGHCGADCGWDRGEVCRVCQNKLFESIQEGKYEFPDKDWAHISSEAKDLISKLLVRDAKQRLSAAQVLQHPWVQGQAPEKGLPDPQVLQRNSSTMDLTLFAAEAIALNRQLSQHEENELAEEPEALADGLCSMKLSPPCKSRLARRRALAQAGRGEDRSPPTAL
row,IC50 [nM],SMILES
1,115,"COc1ccc(F)cc1Nc1ncnc2[nH]c3c(c12)CC(C(=O)N1CCN(C)CC1)CC3 (racemic) [Example 196, (RS)-{4-[(5-Fluoro-2-methoxyphenyl)amino]-6,7,8,9-tetrahydro-5H-pyrimido[4,5-b]indol-6-yl}(4-methylpiperazin-1-yl)methanone]"
2,1550,O=[N+]([O-])c1ccc2c(c1)CCN2c1ncnc2[nH]c3c(c12)CCCC3 [Example 123]
3,335,"CC(=O)c1ccc(Nc2ncnc3[nH]c4c(c23)CC(C(=O)NCCCS(C)(=O)=O)CC4)cc1 (racemic) [Example 53, (RS)-4-[(4-Acetylphenyl)amino]-N-[3-(methylsulfonyl)propyl]-6,7,8,9-tetrahydro-5H-pyrimido[4,5-b]indole-6-carboxamide]"
4,51,"c1nc(Nc2ccc3[nH]ncc3c2)c2c3c([nH]c2n1)CCC1(C3)OCCO1 [Example 27, N-(1H-Indazol-5-yl)-5′,7′,8′,9′-tetrahydrospiro[1,3-dioxolane-2,6′-pyrimido[4,5-b]indol]-4′-amine]"
5,8,"CS(=O)(=O)CCCNC(=O)C1CCc2[nH]c3ncnc(Nc4ccc5[nH]ncc5c4)c3c2C1 (racemic) [Example 14, (RS)-4-(1H-Indazol-5-ylamino)-N-[3-(methylsulfonyl)propyl]-6,7,8,9-tetrahydro-5H-pyrimido[4,5-b]indole-6-carboxamide]"
6,26,"COc1cc2[nH]ncc2cc1Nc1ncnc2[nH]c3c(c12)CC(C(=O)O)CC3 (racemic) [Example 184, (RS)-4-[(6-Methoxy-1H-indazol-5-yl)amino]-6,7,8,9-tetrahydro-5H-pyrimido[4,5-b]indole-6-carboxylic acid hydrochloride (1:1)]"
7,1730,"COc1ccc(Cl)cc1Sc1ncnc2[nH]c3c(c12)CC(C(=O)NCCCS(C)(=O)=O)CC3 (racemic) [Example 148, (RS)-4-[(5-Chloro-2-methoxyphenyl)sulfanyl]-N-[3-(methylsulfonyl)propyl]-6,7,8,9-tetrahydro-5H-pyrimido[4,5-b]indole-6-carboxamide]"
8,615,"COc1ccc(OC)c(Nc2ncnc3[nH]c4c(c23)CC(C(=O)NCCCS(C)(=O)=O)CC4)c1 (racemic) [Example 42, (RS)-4-[(2,5-Dimethoxyphenyl)amino]-N-[3-(methylsulfonyl)propyl]-6,7,8,9-tetrahydro-5H-pyrimido[4,5-b]indole-6-carboxamide]"
9,19,"O=C(NC1CC1)C1CCc2[nH]c3ncnc(Nc4ccc5[nH]ncc5c4)c3c2C1 (racemic) [Example 15, (RS)—N—Cyclopropyl-4-(1H-indazol-5-ylamino)-6,7,8,9-tetrahydro-5H-pyrimido[4,5-b]indole-6-carboxamide]"
10,215,"CCOC(=O)C1CCc2[nH]c3ncnc(Nc4ccc(Cl)c(Cl)c4)c3c2C1 (racemic) [Example 178, (RS)-Ethyl 4-[(3,4-dichlorophenyl)amino]-6,7,8,9-tetrahydro-5H-pyrimido[4,5-b]indole-6-carboxylate]"
11,507,"c1nc(Nc2ccc3[nH]ncc3c2)c2c3c([nH]c2n1)CCC3 [Example 69, N-(1H-Indazol-5-yl)-5,6,7,8-tetrahydrocyclopenta[4,5]pyrrolo[2,3-d]pyrimidin-4-amine]"
12,904,"CS(=O)(=O)CCCNC(=O)C1CCc2[nH]c3ncnc(Nc4ccc5c(c4)CCS5(=O)=O)c3c2C1 (racemic) [Example 52, (RS)-4-[(1,1-Dioxido-2,3-dihydro-1-benzothiophen-5-yl)amino]-N-[3-(methylsulfonyl)propyl]-6,7,8,9-tetrahydro-5H-pyrimido[4,5-b]indole-6-carboxamide]"
13,88,"CCNC(=O)C1CCc2[nH]c3ncnc(Nc4ccccc4OC4CCCC4)c3c2C1 (racemic) [Example 190, (RS)-4-{[2-(Cyclopentyloxy)phenyl]amino}-N-ethyl-6,7,8,9-tetrahydro-5H-pyrimido[4,5-b]indole-6-carboxamide]"
14,19,"COc1cc(Cl)c(Cl)cc1Nc1ncnc2[nH]c3c(c12)CC(C(=O)NC(C)C)CC3 (racemic) [Example 226, (RS)-4-[(4,5-Dichloro-2-methoxyphenyl)amino]-N-(propan-2-yl)-6,7,8,9-tetrahydro-5H-pyrimido[4,5-b]indole-6-carboxamide]"
15,1740,CC(C)Oc1ccc(Cl)cc1Nc1ncnc2[nH]c3c(c12)CCCC3 [Example 124]
16,40,"COc1ccc(Cl)cc1Nc1ncnc2[nH]c3c(c12)CC(C(=O)NC(C)C)CC3 (racemic) [Example 224, (RS)-4-[(5-Chloro-2-methoxyphenyl)amino]-N-(propan-2-yl)-6,7,8,9-tetrahydro-5H-pyrimido[4,5-b]indole-6-carboxamide]"
17,15,"O=C(Nc1ccccc1)C1CCc2[nH]c3ncnc(Nc4ccc5[nH]ncc5c4)c3c2C1 (racemic) [Example 16, (RS)-4-(1H-Indazol-5-ylamino)-N-phenyl-6,7,8,9-tetrahydro-5H-pyrimido[4,5-b]indole-6-carboxamide]"
18,126,COc1ccc(F)cc1Nc1ncnc2[nH]c3c(c12)CCCC3 [Example 108]

row,IC50 [nM],SMILES
1,683,Nc1ccc2c(c1)CCN2c1ncnc2[nH]c3c(c12)CCCC3 [Example 113]
2,339,COCC1(OC)CCc2[nH]c3ncnc(Nc4cc(Cl)c(Cl)cc4OC)c3c2C1 (racemic) [Example 140]
3,359,"CCOC(=O)C1CCc2[nH]c3ncnc(Nc4cc(Cl)ccc4OC)c3c2C1 (racemic) [Example 175, (RS)-Ethyl 4-[(5-chloro-2-methoxyphenyl)amino]-6,7,8,9-tetrahydro-5H-pyrimido[4,5-b]indole-6-carboxylate]"
4,3540,"O=C1OCCOc2cc(F)ccc2Nc2ncnc3[nH]c4c(c23)CC1CC4 (racemic) [Example 229, (RS)-11-Fluoro-1,3,4,7,8,14-hexahydro-5H-2,4-ethano-6,9-dioxa-1,14,15,17-tetraazabenzo[5,6]cyclotrideca[1,2,3-cd]inden-5-one]"
5,28,"COc1ccc(C(F)(F)F)cc1Nc1ncnc2[nH]c3c(c12)CC(C(=O)NCCCS(C)(=O)=O)CC3 (racemic) [Example 67, (RS)-4-{[2-Methoxy-5-(trifluoromethyl)phenyl]amino}-N-[3-(methylsulfonyl)propyl]-6,7,8,9-tetrahydro-5H-pyrimido[4,5-b]indole-6-carboxamide]"
6,9330,"CNS(=O)(=O)c1ccc(Nc2ncnc3[nH]c4c(c23)CC(C(=O)NCCCS(C)(=O)=O)CC4)cc1 (racemic) [Example 41, (RS)-4-{[4-(Methylsulfamoyl)phenyl]amino}-N-[3-(methylsulfonyl)propyl]-6,7,8,9-tetrahydro-5H-pyrimido[4,5-b]indole-6-carboxamide]"
7,77,"O=C(NCc1ccccc1)C1CCc2[nH]c3ncnc(Nc4ccccc4N4CCOCC4)c3c2C1 (racemic) [Example 206, (RS)—N-Benzyl-4-{[2-(morpholin-4-yl)phenyl]amino}-6,7,8,9-tetrahydro-5H-pyrimido[4,5-b]indole-6-carboxamide]"
8,5700,COCC1(OC)CCc2[nH]c3ncnc(Nc4cc5[nH]c(=O)[nH]c5cc4Cl)c3c2C1 (racemic) [Example 131]
9,1900,"CCOC(=O)C1CCc2[nH]c3ncnc(Nc4ccccc4OC4CCCC4)c3c2C1 (racemic) [Example 170, (RS)-Ethyl 4-{[2-(cyclopentyloxy)phenyl]amino}-6,7,8,9-tetrahydro-5H-pyrimido[4,5-b]indole-6-carboxylate]"
10,86,"CCOc1cc(Cl)ccc1Nc1ncnc2[nH]c3c(c12)CC(C(=O)NCCCS(C)(=O)=O)CC3 (racemic) [Example 165, (RS)-4-[(4-Chloro-2-ethoxyphenyl)amino]-N-[3-(methylsulfonyl)propyl]-6,7,8,9-tetrahydro-5H-pyrimido[4,5-b]indole-6-carboxamide]"
11,20,"CCNC(=O)C1CCc2[nH]c3ncnc(Nc4ccc5[nH]ncc5c4)c3c2C1 (racemic) [Example 7, (RS)—N-Ethyl-4-(1H-indazol-5-ylamino)-6,7,8,9-tetrahydro-5H-pyrimido[4,5-b]indole-6-carboxamide]"
12,6160,"COc1cc2nc(C)sc2cc1Nc1ncnc2[nH]c3c(c12)CC(C(=O)NCCCS(C)(=O)=O)CC3 (racemic) [Example 68, (RS)-4-[(5-Methoxy-2-methyl-1,3-benzothiazol-6-yl)amino]-N-[3-(methylsulfonyl)propyl]-6,7,8,9-tetrahydro-5H-pyrimido[4,5-b]indole-6-carboxamide]"
13,469,"CS(=O)(=O)CCCNC(=O)C1CCc2[nH]c3ncnc(Nc4ccccc4OC(F)F)c3c2C1 (racemic) [Example 154, (RS)-4-{[2-(Difluoromethoxy)phenyl]amino}-N-[3-(methylsulfonyl)propyl]-6,7,8,9-tetrahydro-5H-pyrimido[4,5-b]indole-6-carboxamide]"
14,4,"COc1cc2[nH]ncc2cc1Nc1ncnc2[nH]c3c(c12)CC(C(=O)N1CCN(C)CC1)CC3 (racemic) [Example 221, (RS)-{4-[(6-Methoxy-1H-indazol-5-yl)amino]-6,7,8,9-tetrahydro-5H-pyrimido[4,5-b]indol-6-yl}(4-methylpiperazin-1-yl)methanone]"
15,159,"COc1ccc(Cl)cc1Nc1ncnc2[nH]c3c(c12)CC(C(=O)O)CC3 (racemic) [Example 235, (RS)-4-[(5-Chloro-2-methoxyphenyl)amino]-6,7,8,9-tetrahydro-5H-pyrimido[4,5-b]indole-6-carboxylic acid]"
16,≥ 20000,COc1ccc(Cl)cc1Nc1ncnc2[nH]c3c(c12)CC(F)(F)CC3 [Example 144]
17,≥ 20000,"COc1ccc(F)cc1Nc1ncnc2[nH]c3c(c12)CC(C(=O)Nc1ccccc1)CC3 (racemic) [Example 199, (RS)-4-[(5-Fluoro-2-methoxyphenyl)amino]-N-phenyl-6,7,8,9-tetrahydro-5H-pyrimido[4,5-b]indole-6-carboxamide]"
18,3140,"CCNC(=O)C1CCc2[nH]c3ncnc(N4CCc5ccccc54)c3c2C1 (racemic) [Example 207, (RS)-4-(2,3-Dihydro-1H-indol-1-yl)-N-ethyl-6,7,8,9-tetrahydro-5H-pyrimido[4,5-b]indole-6-carboxamide]"
